In this assay the test system is T1, prolactin-releasing peptide receptor (PRRPR).
T1 construct: full ORF (XP_021184170.1) fused to GFP (PRRPR-GFP), in membranes of overexpressing HaEpi cells
Briefly: saturation binding to membranes of PRRPR-GFP-overexpressing HaEpi cells, bound […] quantified by enzyme immunoassay ([…]-EIA). On the set-up: species or system Helicoverpa armigera.

The structures appear in SMILES notation.

The Kd is the free concentration of one partner at which half of the binding sites on the other are occupied at equilibrium, for simple one-to-one binding. A low value points to tighter binding. Regarding `CC(C)(O)CC[C@@H](O)[C@](C)(O)[C@H]1CC[C@@]2(O)C3=CC(=O)[C@@H]4C[C@@H](O)[C@@H](O)C[C@]4(C)[C@H]3CC[C@]12C` [20E, 20-hydroxyecdysone], the affinity, expressed as Kd, was 0.0128 ± 0.00219 µM.

For the origin of these results see paper PMC8576438, “Identification and Functional Analysis of G Protein-Coupled Receptors in 20-Hydroxyecdysone Signaling From the Helicoverpa armigera Genome” (Frontiers in Cell and Developmental Biology, 2021).
